Tested on: MV-4-11 cells
Test: Gene expression microarray analysis (Affymetrix PrimeView) and GSEA
Format: cell-based, human
Design: RFU PODN (11730768_x_at) / Fold change /veh PODN (11730768_x_at) / RFU LINC00158 (11744669_a_at) / Fold change /veh LINC00158 (11744669_a_at) / RFU DUSP10 (11751237_a_at) / Fold change /veh DUSP10 (11751237_a_at) / RFU ID3 (11757404_x_at) / Fold change /veh ID3 (11757404_x_at) / RFU PLEKHG5 (11737974_s_at) / Fold change /veh PLEKHG5 (11737974_s_at) / RFU LRRC4B (11730491_at) / Fold change /veh LRRC4B (11730491_at) / RFU GIMAP4 (11747438_a_at) / Fold change /veh GIMAP4 (11747438_a_at) / RFU KRT8 (11758183_x_at) / Fold change /veh KRT8 (11758183_x_at) / RFU CNN1 (11734310_a_at) / Fold change /veh CNN1 (11734310_a_at) / RFU VPS37D (11726825_at) / Fold change /veh VPS37D (11726825_at) / RFU C10orf10 (11716522_x_at) / Fold change /veh C10orf10 (11716522_x_at) / RFU KIR2DL2 /// KIR2DL4 /// KIR2DL5A /// KIR2DL5B /// KIR2DS1 /// KIR2DS2 /// KIR2DS3 /// KIR2DS4 /// KIR3DL3 /// KIR3DL3 /// KIR3DS1 (11738374_at) / Fold change /veh KIR2DL2 /// KIR2DL4 /// KIR2DL5A /// KIR2DL5B /// KIR2DS1 /// KIR2DS2 /// KIR2DS3 /// KIR2DS4 /// KIR3DL3 /// KIR3DL3 /// KIR3DS1 (11738374_at) / RFU C1QL1 (11718748_at) / Fold change /veh C1QL1 (11718748_at) / RFU TMPRSS4 (11747572_a_at) / Fold change /veh TMPRSS4 (11747572_a_at) / RFU HAMP (11756126_x_at) / Fold change /veh HAMP (11756126_x_at) / RFU RNFT2 (11725882_a_at) / Fold change /veh RNFT2 (11725882_a_at) / RFU NR4A2 (11747474_a_at) / Fold change /veh NR4A2 (11747474_a_at) / RFU ABCC12 (11746883_a_at) / Fold change /veh ABCC12 (11746883_a_at) / RFU TMEM136 (11760407_x_at) / Fold change /veh TMEM136 (11760407_x_at) / RFU CLDN22 /// WWC2 (11732394_at) / Fold change /veh CLDN22 /// WWC2 (11732394_at) / RFU HLA-DPB1 (11760878_x_at) / Fold change /veh HLA-DPB1 (11760878_x_at) / RFU SPINT1 (11716480_a_at) / Fold change /veh SPINT1 (11716480_a_at) / RFU GAP43 (11754022_s_at) / Fold change /veh GAP43 (11754022_s_at) / RFU A4GNT (11735810_at) / Fold change /veh A4GNT (11735810_at) / RFU PRB3 (11715151_x_at) / Fold change /veh PRB3 (11715151_x_at) / RFU TUBB4B (11761932_at) / Fold change /veh TUBB4B (11761932_at) / RFU CAPN14 (11732068_a_at) / Fold change /veh CAPN14 (11732068_a_at) / RFU TMCC2 (11721928_a_at) / Fold change /veh TMCC2 (11721928_a_at) / RFU IRGQ (11745062_a_at) / Fold change /veh IRGQ (11745062_a_at) / RFU FAM174B (11720279_a_at) / Fold change /veh FAM174B (11720279_a_at) / RFU TMPRSS4 (11748680_a_at) / Fold change /veh TMPRSS4 (11748680_a_at) / RFU FAM212B (11763350_a_at) / Fold change /veh FAM212B (11763350_a_at) / RFU PLEKHG5 (11743358_a_at) / Fold change /veh PLEKHG5 (11743358_a_at) / RFU ZSCAN30 (11745921_a_at) / Fold change /veh ZSCAN30 (11745921_a_at) / RFU CMKLR1 (11741424_a_at) / Fold change /veh CMKLR1 (11741424_a_at) / RFU LOC101060620 /// MAPK8IP1 (11723275_at) / Fold change /veh LOC101060620 /// MAPK8IP1 (11723275_at) / RFU SPTSSB (11747773_x_at) / Fold change /veh SPTSSB (11747773_x_at) / RFU PRSS12 (11739890_at) / Fold change /veh PRSS12 (11739890_at) / RFU BIN1 (11741810_x_at) / Fold change /veh BIN1 (11741810_x_at) / RFU WNT11 (11732464_a_at) / Fold change /veh WNT11 (11732464_a_at) / RFU C10orf10 (11716521_a_at) / Fold change /veh C10orf10 (11716521_a_at) / RFU C5orf56 (11738089_at) / Fold change /veh C5orf56 (11738089_at) / RFU CYB561 (11721691_x_at) / Fold change /veh CYB561 (11721691_x_at) / RFU ANKRD19P (11752326_a_at) / Fold change /veh ANKRD19P (11752326_a_at) / RFU OR2T12 /// OR2T33 /// OR2T8 (11738714_s_at) / Fold change /veh OR2T12 /// OR2T33 /// OR2T8 (11738714_s_at) / RFU VCAN (11748164_a_at) / Fold change /veh VCAN (11748164_a_at) / RFU JSRP1 (11732532_at) / Fold change /veh JSRP1 (11732532_at) / RFU KRTAP10-11 (11738290_x_at) / Fold change /veh KRTAP10-11 (11738290_x_at) / RFU MYO3A (11730013_a_at) / Fold change /veh MYO3A (11730013_a_at) / RFU EBF3 (11725865_a_at) / Fold change /veh EBF3 (11725865_a_at) / RFU CAMK2N1 (11719241_x_at) / Fold change /veh CAMK2N1 (11719241_x_at) / RFU C5orf56 (11738088_a_at) / Fold change /veh C5orf56 (11738088_a_at) / RFU OLFML3 (11715873_a_at) / Fold change /veh OLFML3 (11715873_a_at) / RFU LOC100653217 /// NTM (11731650_a_at) / Fold change /veh LOC100653217 /// NTM (11731650_a_at) / RFU MAPK11 (11762145_a_at) / Fold change /veh MAPK11 (11762145_a_at) / RFU FIZ1 (11724087_x_at) / Fold change /veh FIZ1 (11724087_x_at) / RFU OASL (11726364_x_at) / Fold change /veh OASL (11726364_x_at) / RFU SOX15 (11748057_x_at) / Fold change /veh SOX15 (11748057_x_at) / RFU CD79A (11719716_a_at) / Fold change /veh CD79A (11719716_a_at) / RFU HIST1H1D (11736915_at) / Fold change /veh HIST1H1D (11736915_at) / RFU CASKIN2 (11723855_a_at) / Fold change /veh CASKIN2 (11723855_a_at) / RFU LOC730098 (11760151_x_at) / Fold change /veh LOC730098 (11760151_x_at) / RFU OR4N2 (11742367_at) / Fold change /veh OR4N2 (11742367_at) / RFU PRRT2 (11749266_a_at) / Fold change /veh PRRT2 (11749266_a_at) / RFU SNX32 (11753110_a_at) / Fold change /veh SNX32 (11753110_a_at) / RFU CDHR5 (11726645_a_at) / Fold change /veh CDHR5 (11726645_a_at) / RFU RCAN1 (11760418_a_at) / Fold change /veh RCAN1 (11760418_a_at) / RFU FAM167A (11723789_a_at) / Fold change /veh FAM167A (11723789_a_at) / RFU FAM26E (11764081_at) / Fold change /veh FAM26E (11764081_at) / RFU ISYNA1 (11749810_s_at) / Fold change /veh ISYNA1 (11749810_s_at) / RFU ACY1 (11761880_at) / Fold change /veh ACY1 (11761880_at) / RFU 11764098_at / Fold change /veh 11764098_at / RFU SAMD14 (11745864_x_at) / Fold change /veh SAMD14 (11745864_x_at) / RFU NPB (11741838_a_at) / Fold change /veh NPB (11741838_a_at) / RFU TMPRSS6 (11731388_a_at) / Fold change /veh TMPRSS6 (11731388_a_at) / RFU KRTAP10-2 (11738614_at) / Fold change /veh KRTAP10-2 (11738614_at) / RFU ARHGAP8 /// PRR5-ARHGAP8 (11727945_x_at) / Fold change /veh ARHGAP8 /// PRR5-ARHGAP8 (11727945_x_at) / RFU KRTAP5-7 /// NADSYN1 (11734609_at) / Fold change /veh KRTAP5-7 /// NADSYN1 (11734609_at) / RFU RASL12 (11751679_a_at) / Fold change /veh RASL12 (11751679_a_at) / RFU CDKN2B (11736163_a_at) / Fold change /veh CDKN2B (11736163_a_at) / RFU PRF1 (11729649_at) / Fold change /veh PRF1 (11729649_at) / RFU, ZNF638 /// ZNF638-IT1 / Fold change vs veh, ZNF638 /// ZNF638-IT1 / RFU, PANK3 / Fold change vs veh, PANK3 / RFU, SH3YL1 / Fold change vs veh, SH3YL1 / RFU, ZEB2 / Fold change vs veh, ZEB2 / RFU, NRIP1 / Fold change vs veh, NRIP1 / RFU, PTTG1IP / Fold change vs veh, PTTG1IP / RFU, CAPN2 / Fold change vs veh, CAPN2 / RFU, MED14 / Fold change vs veh, MED14 / RFU, SNORA58 / Fold change vs veh, SNORA58 / RFU, C1orf63 / Fold change vs veh, C1orf63 / RFU, LRRFIP1 / Fold change vs veh, LRRFIP1 / RFU, NDUFAF7 / Fold change vs veh, NDUFAF7 / RFU, SLC12A2 / Fold change vs veh, SLC12A2 / RFU, IBTK / Fold change vs veh, IBTK / RFU, ESF1 / Fold change vs veh, ESF1 / Fold change vs veh, TMEM50B / RFU, TAOK1 / Fold change vs veh, TAOK1 / RFU, ACBD3 / Fold change vs veh, ACBD3 / RFU, TMA16 / Fold change vs veh, TMA16 / RFU, RWDD3 / Fold change vs veh, RWDD3 / RFU, BCAT1 / Fold change vs veh, BCAT1 / RFU, EDEM3 / Fold change vs veh, EDEM3 / RFU, TMEM33 / Fold change vs veh, TMEM33 / RFU, WDR75 / Fold change vs veh, WDR75 / RFU, AHCTF1 / Fold change vs veh, AHCTF1 / RFU, TFRC / Fold change vs veh, TFRC / RFU, ZDHHC17 / Fold change vs veh, ZDHHC17 / RFU, NOM1 / Fold change vs veh, NOM1 / RFU, ARL8B / Fold change vs veh, ARL8B / RFU, ZBTB11 / Fold change vs veh, ZBTB11 / RFU, TAMM41 / Fold change vs veh, TAMM41 / RFU, KIAA1704 /// LOC100996395 / Fold change vs veh, KIAA1704 /// LOC100996395 / RFU, ING1 / Fold change vs veh, ING1 / RFU, TRMT61B / Fold change vs veh, TRMT61B / RFU, FUBP3 / Fold change vs veh, FUBP3 / RFU, TP53 / Fold change vs veh, TP53 / RFU, TNKS2 / Fold change vs veh, TNKS2 / RFU, ZFP14 / Fold change vs veh, ZFP14 / RFU, ACTR2 / Fold change vs veh, ACTR2 / RFU, PPP3R1 / Fold change vs veh, PPP3R1 / RFU, PIK3R1 / Fold change vs veh, PIK3R1 / RFU, HNRNPA1 / Fold change vs veh, HNRNPA1 / RFU, RNF170 / Fold change vs veh, RNF170 / RFU, ZNF28 / Fold change vs veh, ZNF28 / RFU, RNGTT / Fold change vs veh, RNGTT / RFU, OGT / Fold change vs veh, OGT / RFU, BRD1 / Fold change vs veh, BRD1 / RFU, MARS / Fold change vs veh, MARS / RFU, ZNF655 / Fold change vs veh, ZNF655 / RFU, FAHD1 / Fold change vs veh, FAHD1 / RFU, BDP1 / Fold change vs veh, BDP1 / RFU, LRRCC1 / Fold change vs veh, LRRCC1 / RFU, ARID1A / Fold change vs veh, ARID1A / RFU, ZNF146 / Fold change vs veh, ZNF146 / RFU, ZNF330 / Fold change vs veh, ZNF330 / RFU, GPN3 / Fold change vs veh, GPN3 / RFU, C9orf123 / Fold change vs veh, C9orf123 / RFU, N4BP2L2 / Fold change vs veh, N4BP2L2 / RFU, ARFIP1 / Fold change vs veh, ARFIP1 / RFU, FAM179B / Fold change vs veh, FAM179B / RFU, BCL10 / Fold change vs veh, BCL10 / RFU, UHRF1BP1L / Fold change vs veh, UHRF1BP1L / RFU, BET1 / Fold change vs veh, BET1 / RFU, CNOT2 / Fold change vs veh, CNOT2 / RFU, ZNF268 / Fold change vs veh, ZNF268 / Fold change vs veh, ZNF507 / RFU, DGCR2 / Fold change vs veh, DGCR2 / RFU, WDSUB1 / Fold change vs veh, WDSUB1 / Fold change vs veh, HSP90B1 /// MIR3652 / RFU, ADSS / Fold change vs veh, ADSS / RFU, GK / Fold change vs veh, GK / RFU, ZNF148 / Fold change vs veh, ZNF148 / RFU, TAF9 / Fold change vs veh, TAF9 / RFU, SLC1A5 / Fold change vs veh, SLC1A5 / RFU, SLMO2 / Fold change vs veh, SLMO2 / RFU, ABCC4 / Fold change vs veh, ABCC4 / RFU, LOC101060439 /// RAP1B / Fold change vs veh, LOC101060439 /// RAP1B / RFU, RFX7 / Fold change vs veh, RFX7 / RFU, GTPBP10 / Fold change vs veh, GTPBP10 / RFU, CNEP1R1 / Fold change vs veh, CNEP1R1 / RFU, BIVM-ERCC5 /// ERCC5 / Fold change vs veh, BIVM-ERCC5 /// ERCC5 / RFU, ILF3 / Fold change vs veh, ILF3 / RFU 11762660_at / Fold change /veh 11762660_at / RFU VCAN (11757783_s_at) / Fold change /veh VCAN (11757783_s_at) / RFU DDX43 (11728927_at) / Fold change /veh DDX43 (11728927_at) / RFU KRT8 (11758188_x_at) / Fold change /veh KRT8 (11758188_x_at) / RFU NKD1 (11759106_at) / Fold change /veh NKD1 (11759106_at) / RFU SRD5A1 (11742802_a_at) / Fold change /veh SRD5A1 (11742802_a_at) / RFU TPSAB1 /// TPSB2 (11721975_s_at) / Fold change /veh TPSAB1 /// TPSB2 (11721975_s_at) / RFU GSTM3 (11746129_a_at) / Fold change /veh GSTM3 (11746129_a_at) / RFU IL23R (11737362_x_at) / Fold change /veh IL23R (11737362_x_at) / RFU TMEM51 (11727254_a_at) / Fold change /veh TMEM51 (11727254_a_at) / RFU PIWIL2 (11732686_x_at) / Fold change /veh PIWIL2 (11732686_x_at) / RFU ORM1 (11744905_x_at) / Fold change /veh ORM1 (11744905_x_at) / RFU CCDC152 (11743942_at) / Fold change /veh CCDC152 (11743942_at) / RFU ECM1 (11717891_a_at) / Fold change /veh ECM1 (11717891_a_at) / RFU IL23R (11748794_a_at) / Fold change /veh IL23R (11748794_a_at) / RFU TNFAIP8L3 (11732012_x_at) / Fold change /veh TNFAIP8L3 (11732012_x_at) / RFU MBOAT4 (11741988_at) / Fold change /veh MBOAT4 (11741988_at) / RFU 11764193_at / Fold change /veh 11764193_at / RFU TMEM53 (11763286_at) / Fold change /veh TMEM53 (11763286_at) / RFU MAGEB2 (11727129_at) / Fold change /veh MAGEB2 (11727129_at) / RFU TMEM200A (11744735_a_at) / Fold change /veh TMEM200A (11744735_a_at) / RFU CCDC152 (11751479_a_at) / Fold change /veh CCDC152 (11751479_a_at) / RFU FAM211A (11726209_a_at) / Fold change /veh FAM211A (11726209_a_at) / RFU RGS16 (11746705_a_at) / Fold change /veh RGS16 (11746705_a_at) / RFU VCAN (11755009_s_at) / Fold change /veh VCAN (11755009_s_at) / RFU RHOB (11743442_s_at) / Fold change /veh RHOB (11743442_s_at) / RFU RGS16 (11720943_a_at) / Fold change /veh RGS16 (11720943_a_at) / RFU RGS16 (11720944_at) / Fold change /veh RGS16 (11720944_at) / RFU, VPS4B / Fold change vs veh, VPS4B / RFU, CREB1 / Fold change vs veh, CREB1 / RFU, DNAJC13 / Fold change vs veh, DNAJC13 / RFU, GNAQ / Fold change vs veh, GNAQ / RFU, CDK5R1 / Fold change vs veh, CDK5R1 / RFU, ZRANB3 / Fold change vs veh, ZRANB3 / RFU, CUL4A / Fold change vs veh, CUL4A / RFU, CCNY / Fold change vs veh, CCNY / RFU, UFL1 / Fold change vs veh, UFL1 / RFU, COG3 / Fold change vs veh, COG3 / RFU, DIAPH2 / Fold change vs veh, DIAPH2 / RFU, SKA2 / Fold change vs veh, SKA2 / RFU, AFF3 / Fold change vs veh, AFF3 / RFU, LMF1 / Fold change vs veh, LMF1 / RFU, IPO11 / Fold change vs veh, IPO11 / RFU, DFFB / Fold change vs veh, DFFB / RFU, FOXP1 / Fold change vs veh, FOXP1 / RFU, CARD8 / Fold change vs veh, CARD8 / RFU, STRN3 / Fold change vs veh, STRN3 / RFU, ADK / Fold change vs veh, ADK / RFU, RASSF2 / Fold change vs veh, RASSF2 / RFU, WIPF1 / Fold change vs veh, WIPF1 / RFU, LARP1B / Fold change vs veh, LARP1B / RFU, RASA1 / Fold change vs veh, RASA1 / RFU, RB1 / Fold change vs veh, RB1 / RFU, PPFIA1 / Fold change vs veh, PPFIA1 / RFU, MAT2A / Fold change vs veh, MAT2A / RFU, CCT5 / Fold change vs veh, CCT5 / RFU, WDR92 / Fold change vs veh, WDR92 / RFU, CUX1 / Fold change vs veh, CUX1 / RFU, TTC7A / Fold change vs veh, TTC7A / RFU, TMEM135 / Fold change vs veh, TMEM135 / RFU, DEPTOR / Fold change vs veh, DEPTOR / RFU, CPM / Fold change vs veh, CPM / RFU, DNAJB6 / Fold change vs veh, DNAJB6 / RFU, CACNA2D3 / Fold change vs veh, CACNA2D3 / RFU, DTX4 / Fold change vs veh, DTX4 / RFU, TFCP2 / Fold change vs veh, TFCP2 / RFU, GMCL1 /// GMCL1P1 / Fold change vs veh, GMCL1 /// GMCL1P1 / RFU, AEBP2 / Fold change vs veh, AEBP2 / RFU, SNHG1 /// SNORD22 /// SNORD25 /// SNORD26 /// SNORD27 /// SNORD28 /// SNORD29 /// SNORD31 / Fold change vs veh, SNHG1 /// SNORD22 /// SNORD25 /// SNORD26 /// SNORD27 /// SNORD28 /// SNORD29 /// SNORD31 / Fold change (Aza/veh), C12orf56 (ProbeSet 11735607_a_at) / Fold change (ACY-1035/veh), C12orf56 (ProbeSet 11735607_a_at) / Fold change (Aza/veh), FGFR1OP (ProbeSet 11751329_s_at) / Fold change (ACY-1035/veh), FGFR1OP (ProbeSet 11751329_s_at) / Fold change (Aza/veh), VPS36 (ProbeSet 11739960_a_at) / Fold change (ACY-1035/veh), VPS36 (ProbeSet 11739960_a_at) / RFU SYPL1 (11715823_x_at) / Fold change /veh SYPL1 (11715823_x_at) / RFU IGFBP7 (11715501_s_at) / Fold change /veh IGFBP7 (11715501_s_at) / RFU REEP3 (11722064_at) / Fold change /veh REEP3 (11722064_at) / RFU IGLL1 (11728026_x_at) / Fold change /veh IGLL1 (11728026_x_at): dose or concentration left out as unconfirmed
Settings: MV-4-11 cells, 48 hours

Structure (SMILES): Nc1ncn([C@@H]2O[C@H](CO)[C@@H](O)[C@H]2O)c(=O)n1 [azacitidine]
- Fold change /veh GAP43 (11754022_s_at): 0.84

From publication PMC5218480 (PLoS ONE, 2017)
